# Source: PubChem BioAssay (NCI)
#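 Five compound concentrations were applied to cells in 96-well plates for 48 hours; endpoints were derived by simple linear interpolation of the resulting dose-response curve. Abbreviation: GI50, concentration required for 50% inhibition of growth. TGI: total growth inhibition.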
# How the values were obtained:
# Test in all cases: inhibition of tumour cell growth, NCI panel, 48 h
# TK-10 renal = system: TK-10 renal
# SF-268 CNS = system: SF-268 CNS
# MOLT-4 leukemia = system: MOLT-4 leukemia
# OVCAR-4 ovarian = system: OVCAR-4 ovarian
# OVCAR-8 ovarian = system: OVCAR-8 ovarian
# HCC-2998 colon = system: HCC-2998 colon
# CAKI-1 renal = system: CAKI-1 renal
# OVCAR-5 ovarian = system: OVCAR-5 ovarian
# NCI-H226 lung = system: NCI-H226 lung
# SR leukemia = system: SR leukemia
SMILES,GI50 (TK-10 renal) [µM],TGI (TK-10 renal) [µM],GI50 (SF-268 CNS) [µM],TGI (SF-268 CNS) [µM],GI50 (MOLT-4 leukemia) [µM],TGI (MOLT-4 leukemia) [µM],GI50 (OVCAR-4 ovarian) [µM],TGI (OVCAR-4 ovarian) [µM],GI50 (OVCAR-8 ovarian) [µM],TGI (OVCAR-8 ovarian) [µM],GI50 (HCC-2998 colon) [µM],TGI (HCC-2998 colon) [µM],GI50 (CAKI-1 renal) [µM],TGI (CAKI-1 renal) [µM],GI50 (OVCAR-5 ovarian) [µM],TGI (OVCAR-5 ovarian) [µM],GI50 (NCI-H226 lung) [µM],TGI (NCI-H226 lung) [µM],TGI (SR leukemia) [µM],GI50 (SR leukemia) [µM]
COc1ccc(/C=C/c2cc(OC)c(OC)c(OC)c2)cc1NC(=O)/C=C/c1ccc(F)cc1,4.73,> 100,7.7,> 100,4.48,> 100,5.95,> 100,3.37,> 100,1.94,> 28.2,2.11,> 100,5.97,> 100,3.82,89,–,–
Nc1ccc(C(=O)N/C(=C\C=C\c2ccco2)c2nc3[nH]c(=S)[nH]c(=O)c3[nH]2)cc1,–,> 100,–,> 100,–,> 100,–,> 100,–,> 100,–,> 100,–,> 100,–,> 100,–,–,> 100,–
O=C(O)C1CCc2ccc3ccccc3c2C1c1cccc2ccccc12 (configuration not stated),–,> 100,–,91.7,–,48.7,–,90.9,–,52.1,–,–,–,> 100,–,37.9,–,60,49.9,–
COC1=CC23C=CC1[C@@H](c1ccccc1)C2=C(C)C(=O)N3C(=O)NC1CCCCC1 (some centres not stated),–,84.3,–,33.6,–,45.9,–,–,–,64.6,–,52,–,45.1,–,68.2,–,46.6,56.8,–
Cc1cc2c(CC(=O)O)[nH]nc2c(C(=O)O)c1C,–,> 100,–,> 100,–,> 100,–,–,–,> 100,–,> 100,–,–,–,> 100,–,> 100,> 100,–
Cc1cc2nc3c(=O)n(C)c(=O)nc-3n(-c3ccc(Cl)cc3)c2cc1C,–,92,–,36.7,–,32.8,–,19.8,–,43.7,–,20.4,–,48.8,–,32.6,–,37.6,–,–
O=C(Oc1ccc(O)c2c(=O)n3c(cc12)[nH]c1ccccc13)c1ccccc1,18.8,40.8,61,> 100,16.4,62.6,49,> 100,11.1,32.5,18.6,36.9,–,–,28.4,73.2,18.9,64.2,82.2,25.9
Cc1cc2nc3c(C(OC4OC(CO)C(O)C(O)C4O)C(O)CO)nn(-c4ccccc4)c3nc2cc1C (configuration not stated),–,> 100,–,> 100,–,> 100,–,> 100,–,> 100,–,> 100,–,–,–,> 100,–,–,> 100,–
O=C(Nc1ccc(Cl)cc1)Nc1ccc(Cl)c(Cl)c1,7.64,> 100,4.36,> 100,2.65,> 100,3.88,> 100,5.02,> 100,3.9,44.5,2.96,> 100,4.29,> 100,–,–,–,–
Cc1nc2ccc(C(F)(F)F)cc2nc1Nc1ccc(Cl)c(Cl)c1,–,31.7,–,37.5,–,48.2,–,–,–,25.4,–,13.7,–,–,–,28.7,–,39.1,51.9,–
O=C1C=C(c2c(O)ccc3ccccc23)c2ccccc2C1=O,–,25.8,–,17.2,–,4.41,–,3.79,–,5.3,–,26.5,–,24,–,25,–,27.9,–,–
CCN(CC)CCn1c2c3ccccc3ccc2c2oc(=O)c3ccccc3c21,–,> 100,–,> 100,–,–,–,96.5,–,> 100,–,–,–,> 100,–,> 100,–,–,> 100,–
COc1cc(-c2nc3ccc(C)cc3[nH]2)ccc1OCC(=O)N=Nc1c(O)[nH]c2ccccc12,3.21,11.1,–,–,–,–,1.75,3.25,–,–,1.86,3.31,1.66,3.07,1.83,4.19,–,–,–,–
Cc1c(CCCl)c(=O)n2c([nH]c3ccccc32)c1C#N,–,5.62,–,4.41,–,1.44,–,3.16,–,3.15,–,–,–,2.77,–,4.43,–,4.84,> 10,–
CC1(C)C=CC[C@]2(C)[C@H]3CC[C@@H]4[C@H]5[C@H](C(=O)/C=C/c6cccnc6)CC[C@]5(CO)CC[C@@]4(C)[C@]3(C)CC[C@@H]12,1.81,3.26,–,–,0.539,2.94,1.47,3.41,0.666,3.22,–,–,1.06,2.33,1.32,2.83,1.33,3.08,3.7,0.631
CCCC(=O)c1c(NOC2OC(COC(C)=O)C(OC(C)=O)C(OC(C)=O)C2OC(C)=O)nc(OC)n(C)c1=O (configuration not stated),–,> 100,–,> 100,–,> 100,–,> 100,–,> 100,–,> 100,–,–,–,> 100,–,> 100,> 100,–
CCOc1ccccc1NC(=O)/C=C1\NC(=O)CS1,–,> 100,–,> 100,–,> 100,–,> 100,–,> 100,–,> 100,–,> 100,–,> 100,–,> 100,–,–
CCN(CC)c1ccc(N=Nc2ccc(-c3nc4cccnc4o3)cc2)cc1,–,> 100,–,> 100,–,> 100,–,> 100,–,> 100,–,> 100,–,> 100,–,> 100,–,> 100,–,–
N#CC(C#N)=C(N)/C(C#N)=C\c1ccnc2ccccc12,–,> 100,–,66.3,–,47.9,–,> 100,–,55.7,–,> 100,–,92.1,–,> 100,–,–,58,–
C=CCn1c(C)nc2cc(Nc3nc(Nc4ccc5nc(C)n(CC=C)c5c4)c4ccccc4n3)ccc21,0.78,2.1,1.28,3.1,0.229,0.629,0.24,0.583,0.229,0.535,1.17,2.5,1.61,3.03,0.751,2,2.02,4.77,–,–
